Here are results for 46 molecules from patent US20100120789A1, “Compound” (priority 2005, published 2010).

In one data set the target is Human 11β-HSD1 (Homo sapiens, UniProt P28845). Briefly: 11β-HSD1 HEK assay (whole HEK 293 cells stably transfected with HSD11B1, SPA). Format: cell-based. Further details: expressed in transfected cells; host or cells: HEK 293. The conditions noted are these: for IC50: HEK293, read-out: IC50 (nM) Inhibition of Human 11β-HSD1 (HEK293); for inhibition at 10 µM: HEK293, read-out: % INHIBITION of Human 11 β-HSD1 at 10 μM (HEK). How it is done:
11β-HSD1 HEK Assay Protocol (Cell Based Assay)
11β-HSD1 activity is measured in whole HEK 293 cells stably transfected with the HSD11B1 gene. Cells are incubated in 96-well microplates in the presence of tritiated substrate. Enzyme activity is determined by measuring the amount of tritated product by scintillation proximity assay (SPA). Assay plates contain internal high and low controls to allow calculation of percentage inhibition.
2. When the cells are 80% confluent the medium is removed from each well. 100 μl fresh, serum-free, medium containing ^3H-cortisone and test compound in 1% DMSO is added to each well*. Control wells are also dispensed.
3. The plate is incubated at […] for the required time period.
4. 50 μl of media is removed from each well and transferred to a microplate containing 100 μl of a pre-incubated mixture of anti-cortisol antibody and SPA bead. The mixture is incubated with gentle shaking until equilibrium is reached, before transferring to a scintillation counter to establish the enzyme activity in each sample.
10 μl of compound is dispensed into each well of a 96-well microplate in 10% DMSO at 100 μM concentration. 90 μl media containing ^3H-cortisone is added to each well. The compound/media/substrate mixture is then transferred to the assay plate containing the cells.

Chain of Human 11β-HSD1 (P28845 whole entry): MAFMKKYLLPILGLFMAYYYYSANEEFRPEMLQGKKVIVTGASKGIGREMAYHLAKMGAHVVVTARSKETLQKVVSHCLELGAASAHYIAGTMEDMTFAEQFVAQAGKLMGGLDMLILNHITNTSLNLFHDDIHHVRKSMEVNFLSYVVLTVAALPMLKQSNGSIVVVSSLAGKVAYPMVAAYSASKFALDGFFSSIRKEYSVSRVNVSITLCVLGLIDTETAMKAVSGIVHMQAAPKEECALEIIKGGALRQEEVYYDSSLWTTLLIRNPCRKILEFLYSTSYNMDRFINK

Turning to `NC(=O)c1ccc(OCC(=O)C23CC4CC(CC(C4)C2)C3)cc1` [Compound 1], the IC50 at Human 11β-HSD1 was 117 nM.
As for `NC(=O)c1cccc(OCC(=O)C23CC4CC(CC(C4)C2)C3)c1` [Compound 9], on Human 11β-HSD1, the IC50 was determined as 1050 nM.
`CNC(=O)c1cccc(OCC(=O)C23CC4CC(CC(C4)C2)C3)c1` [Compound 10]: the IC50 on Human 11β-HSD1 turned out to be 68 nM.
For the molecule `CCNC(=O)c1cccc(OCC(=O)C23CC4CC(CC(C4)C2)C3)c1` [Compound 11], the IC50 on Human 11β-HSD1 is 343 nM.
The same measure, in the same setting: with `CC(C)NC(=O)c1cccc(OCC(=O)C23CC4CC(CC(C4)C2)C3)c1` [Compound 12] the figure was 1220 nM; with `CNC(=O)Cc1ccc(OCC(=O)C23CC4CC(CC(C4)C2)C3)cc1` [Compound 13], 94 nM; with `NC(=O)Cc1ccc(OCC(=O)C23CC4CC(CC(C4)C2)C3)cc1` [Compound 15], 204 nM.
`CCNC(=O)Cc1ccc(OCC(=O)C23CC4CC(CC(C4)C2)C3)cc1` [Compound 16]: at Human 11β-HSD1, the IC50 was found to be 912 nM.
Regarding `CNC(=O)c1ccc(COCC(=O)C23CC4CC(CC(C4)C2)C3)cc1` [Compound 18], the half-maximal inhibitory concentration (IC50) on Human 11β-HSD1 turned out to be 250 nM.
Regarding `O=C(C[S+]([O-])Cc1cccs1)C12CC3CC(CC(C3)C1)C2` (stereo not shown) [STX1929, 1-Adamantan-1-yl-2-(thiophen-2-ylmethanesulfinyl)-ethanone], the melting point was in the range of 95 to 98 °C.
With `O=C(C[S+]([O-])c1cccs1)C12CC3CC(CC(C3)C1)C2` (stereo not shown) [STX1930, 1-Adamantan-1-yl-2-(thiophene-2-sulfinyl)-ethanone], the melting point is 114 to 115.5 °C.
Regarding `Cc1ccc(CN(C)C(=O)C23CC4CC(CC(C4)C2)C3)cc1` [STX2003, Adamantane-1-carboxylic acid methyl-(4-methyl-benzyl)-amide], the melting point was 93 to 95 °C.
`O=C(N1CCN(c2ccccn2)CC1)C12CC3CC(CC(C3)C1)C2` [STX2065, Adamantan-1-yl-(4-pyridin-2-yl-piperazin-1-yl)-methanone]: the melting point lay in the range of 137 to 140 °C.
Consider `Cc1ccc(CN(C)C(=O)C23CC4CC(CC(C4)C2)C3)s1` [STX2067, Adamantane-1-carboxylic acid methyl-(5-methyl-thiophen-2-ylmethyl)-amide], for which the melting point is 83 to 85.5 °C.
With `O=C(N1CCN(c2ccc(Cl)cc2)CC1)C12CC3CC(CC(C3)C1)C2` [STX2120, Adamantan-1-yl-[4-(4-chloro-phenyl)-piperazin-1-yl]methanone], the melting point lay in the range of 183 to 185 °C.
In the case of `Cc1cccc(CN(C)C(=O)C23CC4CC(CC(C4)C2)C3)n1` [STX2134, Adamantane-1-carboxylic acid methyl-(6-methyl-pyridin-2-ylmethyl)-amide], the melting point lay within 76 to 77.5 °C.
Molecule `CN(Cc1cccnc1)C(=O)C12CC3CC(CC(C3)C1)C2` [STX2135, Adamantane-1-carboxylic acid methyl-pyridin-3-ylmethyl-amide] registered a melting point of 57 to 59.5 °C.
Molecule `CC(=O)Nc1ccc(NCC(=O)C23CC4CC(CC(C4)C2)C3)cc1` [STX2241, N-[4-(2-Adamantan-1-yl-2-oxo-ethylamino)-phenyl]acetamide] showed a melting point of 156 to 158 °C.
As to `CN(Cc1ccco1)C(=O)C12CC3CC(CC(C3)C1)C2` [STX2247, Adamantane-1-carboxylic acid furan-2-ylmethyl-methyl-amide], the melting point lay in the range of 53.5 to 54.5 °C.
Regarding `Cc1csc(CN(C)C(=O)C23CC4CC(CC(C4)C2)C3)c1` [STX2254, Adamantane-1-carboxylic acid methyl-(4-methyl-thiophen-2-ylmethyl)-amide], the melting point lay in the range of 87 to 88 °C.
Still for that read-out and setting: with `Cn1ccnc1S(=O)(=O)CC(=O)C12CC3CC(CC(C3)C1)C2` [STX2294, 1-Adamantan-1-yl-2-(1-methyl-1H-imidazole-2-sulfonyl)-ethanone] the figure was 124 to 125 °C.
Same read-out and setting: with `O=C(CS(=O)(=O)c1cccs1)C12CC3CC(CC(C3)C1)C2` [STX2295, 1-Adamantan-1-yl-2-(thiophene-2-sulfonyl)-ethanone] the figure was 117.5 to 119 °C; with `Cc1c(C(=O)CS(=O)(=O)Cc2ccc(Cl)cc2)sc2ccc(Cl)cc12` [STX2296, 1-(5-Chloro-3-methyl-benzo[b]thiophen-2-yl)-2-(4-chloro-phenylmethanesulfonyl)-ethanone], 204.5 to 205.5 °C; with `CC(=O)Nc1ccc(S(=O)(=O)CC(=O)C23CC4CC(CC(C4)C2)C3)cc1` [STX2298, N-[4-(2-Adamantan-1-yl-2-oxo-ethanesulfonyl)-phenyl]-acetamide], 151 to 151.5 °C.
The same measure, in the same setting: with `O=C(CS(=O)(=O)Cc1cccs1)C12CC3CC(CC(C3)C1)C2` [STX2299, 1-Adamantan-1-yl-2-(thiophen-2-ylmethanesulfonyl)-ethanone] the figure was 95.5 to 98 °C; with `O=C(NCc1ccc(Cl)cc1)C1CCN(C(=O)C23CC4CC(CC(C4)C2)C3)CC1` [STX2306, 1-(Adamantane-1-carbonyl)-piperidine-4-carboxylic acid 4-chloro-benzylamide], 150 to 152 °C.
With `O=C(O)c1ccc(OCC(=O)C23CC4CC(CC(C4)C2)C3)cc1` [STX2318, 4-(2-Adamantan-1-yl-2-oxo-ethoxy)-benzoic acid], the melting point came to 185.2 °C.
On the same count and under the same terms, with `COC(=O)Cc1ccc(OCC(=O)C23CC4CC(CC(C4)C2)C3)cc1` [STX2320, [4-(2-Adamantan-1-yl-2-oxo-ethoxy)-phenyl]-acetic acid methyl ester] the figure was 71.9 °C.
For `O=C(O)c1cccc(OCC(=O)C23CC4CC(CC(C4)C2)C3)c1` [STX2361, 3-(2-Adamantan-1-yl-2-oxo-ethoxy)-benzoic acid], the melting point was 156.2 °C.
Still for that read-out and setting: with `O=C(O)Cc1ccc(OCC(=O)C23CC4CC(CC(C4)C2)C3)cc1` [STX2364, [4-(2-Adamantan-1-yl-2-oxo-ethoxy)-phenyl]-acetic acid] the figure was 153.4 °C; with `CCN(CC)C(=O)c1ccc(OCC(=O)C23CC4CC(CC(C4)C2)C3)cc1` [STX2375, 4-(2-Adamantan-1-yl-2-oxo-ethoxy)-N,N-diethyl-benzamide], 103.9 °C.
Molecule `CCc1ccc(CN(C)C(=O)CC23CC4CC(CC(C4)C2)C3)s1` [STX2394, 2-Adamantan-1-yl-N-(5-ethyl-thiophen-2-ylmethyl)-N-methyl-acetamide] registered a melting point of 54 to 55 °C.
Molecule `CN(Cc1cc(Br)cs1)C(=O)CC12CC3CC(CC(C3)C1)C2` [STX2396, 2-Adamantan-1-yl-N-(4-bromo-thiophen-2-ylmethyl)-N-methyl-acetamide] had a melting point of 86 to 88.5 °C.
`O=C(Nc1cccnc1)C12CC3CC(CC(C3)C1)C2` [STX2399, Adamantane-1-carboxylic acid pyridin-3-ylamide] returned a melting point of 129 to 131 °C.
On the same count and under the same terms, with `O=C(Nc1nccs1)C12CC3CC(CC(C3)C1)C2` [STX2401, Adamantane-1-carboxylic acid thiazol-2-ylamide] the figure was 200 to 201 °C; with `O=C(CC12CC3CC(CC(C3)C1)C2)N1CCN(Cc2ccc(Cl)cc2)CC1` [STX2402, 2-Adamantan-1-yl-1-[4-(4-chloro-benzyl)-piperazin-1-yl]-ethanone], 119 to 121 °C.
In turn, `Cc1cccc(CN2CCN(C(=O)CC34CC5CC(CC(C5)C3)C4)CC2)c1` [STX2403, 2-Adamantan-1-yl-1-[4-(3-methyl-benzyl)-piperazin-1-yl]-ethanone] yielded a melting point of 86 to 88 °C.
The same measure, in the same setting: with `O=C(CC12CC3CC(CC(C3)C1)C2)N1CCN(c2ccc(Cl)cc2)CC1` [STX2404, 2-Adamantan-1-yl-1-[4-(4-chloro-phenyl)-piperazin-1-yl]-ethanone] the figure was 112.5 to 115 °C.
In turn, `CN(Cc1ccsc1)C(=O)CC12CC3CC(CC(C3)C1)C2` [STX2406, 2-Adamantan-1-yl-N-methyl-N-thiophen-3-ylmethyl-acetamide] came in with a melting point of 69 to 71 °C.
`CN(Cc1cccn1C)C(=O)CC12CC3CC(CC(C3)C1)C2` [STX2407, 2-Adamantan-1-yl-N-methyl-N-(1-methyl-1H-pyrrol-2-ylmethyl)-acetamide] gave a melting point of 75 to 76.5 °C.
On the same count and under the same terms, with `CN(Cc1cccnc1)C(=O)CC12CC3CC(CC(C3)C1)C2` [STX2409, 2-Adamantan-1-yl-N-methyl-N-pyridin-3-ylmethyl-acetamide] the figure was 67 to 68.5 °C; with `O=C(NCc1cccc([N+](=O)[O-])c1)C12CC3CC(CC(C3)C1)C2` [STX2411, Adamantane-1-carboxylic acid 3-nitro-benzylamide], 145.5 to 147 °C.
With `O=S(=O)(NC12CC3CC(CC(C3)C1)C2)c1cc(Cl)ccc1Cl` [compound 1342], on Human 11β-HSD1, the inhibition at 10 µM lay within 20 to 60%.
Still for that read-out and setting: with `Cc1c(Cl)cccc1S(=O)(=O)NC12CC3CC(CC(C3)C1)C2` [compound 1343] the figure was 20 to 60%; with `Cc1c(Cl)cccc1S(=O)(=O)NCC12CC3CC(CC(C3)C1)C2` [compound 1370], 20 to 60%; with `O=S(=O)(NCC12CC3CC(CC(C3)C1)C2)c1ccc(-c2ccccc2)cc1` [compound 1371], 20 to 60%.

Usually IC50 stands for the concentration at which inhibition is half-maximal. Usually melting point stands for the temperature of the solid-liquid transition. What is called inhibition is the change of the read-out against control, counted positive when it falls.
